Reference: patent US6239087A, “Detergent compositions containing fragrance precursors and the fragrance precursors themselves” (The Procter & Gamble Company, priority 1998, dated 2001)

Experiment: Pro-Fragrant Hydrolysis Test (hydrolysis half-life t-1/2 by UV/Vis)
Assay type: physicochemical
Details: pH 0; 90/10 dioxane/water, 30° C.
Experimental: Hydrolysis half-life is the measurement used to determine the ease with which the pro-fragrance compound undergoes acid hydrolysis and thereby releases its fragrance component(s) upon exposure to acid conditions. […] Preferably, pro-fragrances of the invention have a half-life at pH 2 of less than 60 minutes. For granular detergents, the more reactive pro-fragrances, that is, those with half-life at pH 2 of less than one minute, are most suitable, although those having a half-life of less than 60 minutes at pH 0 are also useful. For liquid detergent applications, pro-fragrances having a half-life of less than 60 minutes at pH 0, and half-life greater than one minute at pH 2 should preferably be used.
Hydrolysis half-life is determined by UV/V is spectroscopy in a 90/10 dioxane/water system at 30° C. by following the appearance of the carbonyl absorbance. Because of the hydrophobicity of the pro-fragrance compounds of the invention, a high dioxane/water ratio is needed to ensure solubility of the pro-fragrance. The pH of the water used is achieved by using aqueous HCl. The concentration of the pro-fragrance in the dioxane/water system can be adjusted to achieve convenient, measurable absorbance changes.
All measurements are carried out using a Hewlett Packard 8452 A Diode Array Spectrophotometer using quartz 1 cm path length cuvette cells. […] The pH's are measured using an Orion 230 A standardized with pH 4 and pH 7 buffers. […]
Pro-fragrance is weighed out in a 10.00 ml volumetric flask using an analytical balance (Mettler AE 200) Precision is 1/10 mg. […] Hydrolysis time is measured, starting upon addition of the acid. […] The absorbance of the pro-fragrance solution (At) is followed at a regular series of time intervals, and the cuvette is kept in the water-bath at the above-indicated temperature between measurements. Initial absorbance (Ao) measurements are carried out using an equal concentration of pro-fragrance in a 90/10 v/v dioxane-deionized water solution, and final absorbance (Af) measurements are taken using the hydrolyzed pro-fragrance solution after the hydrolysis is complete. The wavelength at which the hydrolysis is followed is chosen at the wavelength of the absorbance maximum of the parent aldehyde or ketone.
Reaction half-lifes are determined using conventional procedures. The observed first-order rate constant (kobs) is determined by slope of the line provided by plotting the following finction vs time (min):
wherein said function is the natural log of the ratio between the absorbance difference at initial time (Ao) and final time (Af) over the absorbance difference at time t (At) and final time (Af). […]
For CC(C)=CCCC(C)=CC(OC/C=C(\C)CCC=C(C)C)OC/C=C(\C)CCC=C(C)C [Example 2, Digeranyl Citral Acetal], the “t1/2 (hydrolysis half-life)” value was “less than one”.
With CCCCCCCCCCOC(C)(CCc1ccccc1)OCCCCCCCCCC [Example 3, Didecyl Benzyl Acetone Ketal] the “t1/2 (hydrolysis half-life)” value was “less than one”.
In the case of CCCCCCCCCCOC(OCCCCCCCCCC)c1ccc(OC)cc1 [Example 1, Didecyl Anisaldehyde Acetal], the “t1/2 (hydrolysis half-life)” value is reported as “less than 1 minutes”.
In the case of CCCCCCCCCC(OC/C=C(\C)CCC=C(C)C)OC/C=C(\C)CCC=C(C)C [Example 4, Digeranyl Decanal Acetal], the “t1/2 (hydrolysis half-life)” value is reported as 44 min.
